From US20110105419A1, “PHARM[…] BASED ON CO[…] OF D-METALS” (priority 2008, published 2011)
Marks after values point to notes of the source that are not given here.

What was measured:
peritoneal macrophages = assay: Intracellular calcium concentration and Ca2+ signals in peritoneal macrophages (Fura-2AM); format: cell-based, rat
male rats with cytopenia = assay: General blood analysis of male rats with cytopenia after application of cyclophosphane; format: in vivo, rat; conditions: doses mg/kg: cysteine 9.5, lithium carbonate 3, C-Li 10, Fe-C-Li:C-Li 10
herpes type 2 (HSV-2) = assay: Generalized herpetic infection of white mice; format: in vivo; conditions: mice infected with HSV-2
[1] = target: T1, epidermal growth factor receptor (Homo sapiens, UniProt P00533); assay: Tyrosine kinase activity of the epidermal growth factor receptor in A431 cells (phosphotyrosine immunoblotting, densitometry); format: cell-based
T1 construct: cells of the human epidermoid carcinoma line A431 have an extraordinarily high level of expression of the epidermal growth factor receptor; endogenous in cells; host or cells: A431 (All-Russian Cell Culture Collection)
T1 sequence (P00533 25-1210): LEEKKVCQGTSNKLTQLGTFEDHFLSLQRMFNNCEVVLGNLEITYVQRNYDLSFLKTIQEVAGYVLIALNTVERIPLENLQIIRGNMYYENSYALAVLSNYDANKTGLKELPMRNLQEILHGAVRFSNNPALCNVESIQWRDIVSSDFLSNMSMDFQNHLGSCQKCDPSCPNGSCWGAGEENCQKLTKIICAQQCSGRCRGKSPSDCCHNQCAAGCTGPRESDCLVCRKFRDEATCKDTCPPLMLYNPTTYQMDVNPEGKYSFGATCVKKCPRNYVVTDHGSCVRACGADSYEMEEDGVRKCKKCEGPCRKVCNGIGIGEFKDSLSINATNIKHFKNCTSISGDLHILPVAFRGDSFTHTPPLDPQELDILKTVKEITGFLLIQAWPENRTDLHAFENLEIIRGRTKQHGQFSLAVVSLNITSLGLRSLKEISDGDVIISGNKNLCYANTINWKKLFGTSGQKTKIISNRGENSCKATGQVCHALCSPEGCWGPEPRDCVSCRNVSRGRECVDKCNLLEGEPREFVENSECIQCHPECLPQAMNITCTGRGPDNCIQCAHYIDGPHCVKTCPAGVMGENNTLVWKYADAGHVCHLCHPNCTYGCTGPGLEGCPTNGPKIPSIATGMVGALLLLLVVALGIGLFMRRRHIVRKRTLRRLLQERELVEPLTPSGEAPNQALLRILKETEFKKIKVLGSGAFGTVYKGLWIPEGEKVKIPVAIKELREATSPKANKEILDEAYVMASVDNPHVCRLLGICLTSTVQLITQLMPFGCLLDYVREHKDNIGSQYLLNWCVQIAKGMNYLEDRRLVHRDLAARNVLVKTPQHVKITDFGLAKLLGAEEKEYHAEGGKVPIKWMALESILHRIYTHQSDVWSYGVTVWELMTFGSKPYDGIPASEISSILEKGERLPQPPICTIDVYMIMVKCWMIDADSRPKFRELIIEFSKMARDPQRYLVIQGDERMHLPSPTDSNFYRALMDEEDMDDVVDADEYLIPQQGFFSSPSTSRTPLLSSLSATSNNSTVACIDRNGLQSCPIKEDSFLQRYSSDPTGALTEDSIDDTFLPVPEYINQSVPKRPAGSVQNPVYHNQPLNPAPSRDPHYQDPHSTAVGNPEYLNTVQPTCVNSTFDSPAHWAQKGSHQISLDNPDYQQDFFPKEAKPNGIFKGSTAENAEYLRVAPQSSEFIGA

[2] = tested on: Chlamydia trachomatis, strain L-2; assay: Experimental generalized chlamydial infection of white mice; format: in vivo
[3] = 3 days after cyclophosphane 100 mg/kg
[4] = 7 days after cyclophosphane 100 mg/kg
[5] = 14 days after cyclophosphane 100 mg/kg
[6] = Zovirax 15 mg/kg daily for 14 days
[7] = Zovirax 30 mg/kg daily for 14 days
[8] = mice infected with Chlamydia trachomatis L-2, 2 LD50, 20 mg/kg s.c. daily for 10 days
[9] = mice infected with Chlamydia trachomatis L-2, josamycin 25 mg/kg orally daily for 10 days
[10] = mice infected with Chlamydia trachomatis L-2, josamycin 50 mg/kg orally daily for 10 days
[11] = mice infected with Chlamydia trachomatis L-2, josamycin 100 mg/kg orally daily for 10 days

Structure (SMILES)	ESR (male rats with cytopenia; [3])	Erythrocytes (male rats with cytopenia; [3])	Leukocytes (male rats with cytopenia; [3])	Lymphocytes (male rats with cytopenia; [3])	Reticulocytes (male rats with cytopenia; [3])	Segmented neutrophils (male rats with cytopenia; [3])	Thrombocytes (male rats with cytopenia; [3])	ESR (male rats with cytopenia; [4])	Erythrocytes (male rats with cytopenia; [4])	Leukocytes (male rats with cytopenia; [4])	Lymphocytes (male rats with cytopenia; [4])	Segmented neutrophils (male rats with cytopenia; [4])	Thrombocytes (male rats with cytopenia; [4])	ESR (male rats with cytopenia; [5])	Erythrocytes (male rats with cytopenia; [5])	Leukocytes (male rats with cytopenia; [5])	Lymphocytes (male rats with cytopenia; [5])	Reticulocytes (male rats with cytopenia; [5])	Segmented neutrophils (male rats with cytopenia; [5])	further results
Nc1ncnc2c1ncn2[C@@H]1O[C@H](COP(=O)(O)OP(=O)(O)OP(=O)(O)O)[C@@H](O)[C@H]1O [ATP]	–	–	–	–	–	–	–	–	–	–	–	–	–	–	–	–	–	–	–	[Ca2+]i peak of the Ca2+ signal (peritoneal macrophages; rat peritoneal macrophages, normal physiological solution, 200 μM ATP, baseline 75±18 nM): 820 ± 105 nM; [Ca2+]i in the plateau phase, on average (peritoneal macrophages; rat peritoneal macrophages, normal physiological solution, 4 min after addition of 200 μM ATP): 460 ± 115 nM
N[C@@H](CS)C(=O)[O-].[Li+] [C—Li, lithium salt of cysteine]	3.3 ± 0.80 mm/h	4.0 ± 0.23 10^12/l	4.38 ± 0.31* 10^9/l	45 ± 1.6 %	0.1 ± 0.1 %	42 ± 1.6 %	387 ± 17.4 10^9/l	3.2 ± 0.80 mm/h	3.2 ± 0.18 10^12/l	4.8 ± 0.18** 10^9/l	22 ± 0.9 %	50.4 ± 0.6 %	164 ± 10.0** 10^3/l	2.7 ± 0.49 mm/h	5.2 ± 0.26 10^12/l	5.6 ± 0.22** 10^9/l	72.5 ± 1.4%	1.3 ± 0.3%	20.3 ± 2.4 %	Reticulocytes (male rats with cytopenia; [4]): 1.2 ± 0.2%
O=C([O-])[O-].[Li+].[Li+] [Li2HCO3, lithium carbonate]	2.4 ± 0.42 mm/h	3.7 ± 0.21 10^12/l	3.75 ± 0.46* 10^9/l	62 ± 3.8 %	0.118 ± 0.01 %	19.7 ± 3.4 %	256 ± 45.3 10^9/l	2.0 ± 0.36 mm/h	3.6 ± 0.29 10^12/l	3.22 ± 0.11* 10^9/l	50.7 ± 1.6 %	33 ± 1.7 %	119 ± 12.0** 10^3/l	2.4 ± 0.65 mm/h	4.9 ± 0.27 10^12/l	5.9 ± 0.26** 10^9/l	69.3 ± 0.9%	1.4 ± 0.3%	14.9 ± 2.6 %	Reticulocytes (male rats with cytopenia; [4]): 1.1 ± 0.1%
Nc1nc2c(ncn2COCCO)c(=O)[nH]1 [Zovirax]	–	–	–	–	–	–	–	–	–	–	–	–	–	–	–	–	–	–	–	% mortality (herpes type 2 (HSV-2); [6]): 50%; % protection, (S) (herpes type 2 (HSV-2); [6]): 12.5%; Died/total in group (herpes type 2 (HSV-2); [6]): 8/16; ML (days) (T), mean life (herpes type 2 (HSV-2); [6]): 12.8 days; % mortality (herpes type 2 (HSV-2); [7]): 0%; % protection, (S) (herpes type 2 (HSV-2); [7]): 62.5%; Died/total in group (herpes type 2 (HSV-2); [7]): 0/16; ML (days) (T), mean life (herpes type 2 (HSV-2); [7]): ∞
N[C@@H](CS)C(=O)O [cysteine]	2.2 ± 0.30 mm/h	3.0 ± 0.29 10^12/l	3.26 ± 0.31* 10^9/l	68 ± 2.8 %	0.09 ± 0.006 %	17.6 ± 2.1 %	220 ± 45.3 10^9/l	1.9 ± 0.39 mm/h	3.1 ± 0.33 10^12/l	3.47 ± 0.08* 10^9/l	51.5 ± 1.3 %	30 ± 1.8 %	124 ± 11.0** 10^3/l	2.1 ± 0.73 mm/h	4.7 ± 0.21 10^12/l	5.7 ± 0.22** 10^9/l	72.1 ± 1.6%	1.1 ± 0.4%	13.3 ± 1.9 %	activation of the EGF receptor, by a factor of ([1]; cysteine 0.015 μmol/ml, periods of action from 1 hour to 4-8 hours, ratio to control): 8-10; [Ca2+]i increased to, by mobilization of calcium from the intracellular stores (peritoneal macrophages; rat peritoneal macrophages at rest, 0.015 μmol/ml): 180 ± 19 nM; % mortality (herpes type 2 (HSV-2); 20 mg/kg daily for 14 days): 62.5%; Died/total in group (herpes type 2 (HSV-2); 20 mg/kg daily for 14 days): 10/16; ML (days) (T), mean life (herpes type 2 (HSV-2); 20 mg/kg daily for 14 days): 11.4 days; % mortality [2, 8]: 75%; % protection, (S) [2, 8]: 0%; Died/total in group [2, 8]: 12/16; HML (T), (days), harmonic mean life [2, 8]: 5.6 days
NCC(=O)O [glycine]	–	–	–	–	–	–	–	–	–	–	–	–	–	–	–	–	–	–	–	influence on the tyrosine kinase activity of the epidermal growth factor receptor ([1]; ligands 0.015 μmol/ml, coordination compounds 0.015 nmol/ml): barely detected
CO[C@@H]1[C@@H](O[C@@H]2O[C@H](C)[C@@H](O[C@H]3C[C@@](C)(O)[C@@H](OC(=O)CC(C)C)[C@H](C)O3)[C@H](N(C)C)[C@H]2O)[C@@H](CC=O)C[C@@H](C)[C@@H](O)/C=C/C=C/C[C@@H](C)OC(=O)C[C@H]1OC(C)=O [josamycin]	–	–	–	–	–	–	–	–	–	–	–	–	–	–	–	–	–	–	–	% mortality [2, 9]: 37.5%; % protection, (S) [2, 9]: 37.5%; Died/total in group [2, 9]: 6/16; HML (T), (days), harmonic mean life [2, 9]: 12.35 days; % mortality [2, 10]: 12.5%; % protection, (S) [2, 10]: 62.5%; Died/total in group [2, 10]: 2/16; HML (T), (days), harmonic mean life [2, 10]: 83.3 days; % mortality [2, 11]: 0%; % protection, (S) [2, 11]: 75%; Died/total in group [2, 11]: 0/16; HML (T), (days), harmonic mean life [2, 11]: ∞
